# Data taken from patent US20100197584A1, “USE OF CURCUMIN TO BLOCK BRAIN TUMOR FORMATION IN MICE” (Research Foundations of the City University of- New York, priority 2007, published 2010).
# Experiments:
# [1] = system: B16F10 (mouse melanoma) cells; assay: Cell viability assay using MTT, B16F10; assay type: cell-based; conditions: 25 μM and 50 μM, 48 h or 96 h, versus control cells (FIG. 6a)
# Protocol: (§1) Cells. B16F10 (mouse melanoma), GL261 (mouse glioma), HOG (human oligodendroglioma), A549 (human lung cancer), and N18 (mouse neuroblastoma) cells were cultured separately in DMEM containing 10% (v/v) fetal bovine serum and 1% (v/v) penicillin-streptomycin (PS) and allowed to grow to 40% confluence in a 96-well plate.
# (§2) Curcumin Treatment. Two hours before drug treatment, the medium in each well was replaced with 200 μl Neurobasal medium supplemented with 2% (v/v) B27 and 1% (v/v) PS (Drug-treatment Medium). A stock solution (40 mM) of curcumin was prepared in sterile dimethyl sulfoxide (DMSO) (Example 1). Through serial dilution of each stock solution in Drug-treatment Medium, the following concentrations were obtained: 20 μM and 50 μM (for caspase 3/7 assays) or 25 μM and 50 μM (for MTT assays). […] Additionally, the background absorbance was determined from parallel wells containing only the Drug-treatment Medium plus a particular concentration of the drug (no cells).
# (§3) Cell Viability Assay Using MTT (3-(4,5-Dimethylthiazolyl-2)-2,5-Diphenyltetrazolium Bromide). […] Absorbance was measured at 570 nm using a 96-well multi scanner auto-reader with the extraction buffer used as blank. For curcumin samples, the absorbance obtained from the corresponding curcumin plus medium samples was subtracted.
# [2] = system: GL261 (mouse glioma) cells; assay: Cell viability assay using MTT, GL261; assay type: cell-based; conditions: 25 μM and 50 μM, 48 h or 96 h, versus control cells (FIG. 6b)
# Protocol: as §1, §2, §3
# phospho-NF-κB = assay: Western blot of B16F10 cells, phospho-NF-κB; assay type: cell-based, mouse; conditions: 50 μM (FIG. 9)
# Protocol: (§4) B16F10 cells were cultured in 10-cm plates and then treated in duplicate with carrier or curcumin (50 μM). Following treatment for appropriate time periods, the cells were washed with PBS, lysed in RIPA buffer (PBS containing 1% Nonidet P40, 0.5% sodium deoxycholate, 0.1% SDS, 0.5 mM Na3VO4 plus freshly added PMSF and protease inhibitor cocktail; Boeringer-Roche), and then 20 μg of lysate protein (per lane) were analyzed by SDS-10% PAGE and Western blot analysis. Antibody concentrations used were: anti-phospho-NF-κB (1:1000) (Santa Cruz Biotechnology, Santa Cruz, Calif.), anti-phospho-Akt (1:5000) (Cell Signaling, CA), anti-cyclin D1 (1:1000) (Cell Signaling, CA), anti-BclXL (1:500) (Santa Cruz Biotechnology), anti-VEGF (1:500) (Santa Cruz Biotechnology), and anti-β-actin (1:1000) (Sigma, St. Louis, Mo.).
# phospho-Akt = assay: Western blot of B16F10 cells, phospho-Akt; assay type: cell-based, mouse; conditions: 50 μM (FIG. 9)
# Protocol: as §4
# Erk = assay: Western blot of B16F10 cells, Erk; assay type: cell-based, mouse; conditions: 50 μM (FIG. 9)
# Protocol: as §4
# [3] = system: normal (non-tumor) brain cells; assay: Normal brain cell viability (MTT on brain sections); assay type: in vivo; conditions: 200 μl of 667 μM, tail vein, three consecutive days; compared to carrier-injected mice (FIG. 10)
# Protocol: In each experiment, three mice were injected with 200 μl of PBS containing 3% DMSO, and three mice were injected with 200 μl of 667 μM curcumin (as described earlier) through the tail vein on three consecutive days by the method described above. On the fourth day, the mice were perfused with PBS through the heart, and the brains sectioned into 400-μm sections. Similar brain sections were also made from untreated mice which were then treated with 1 mM H2O2 in PBS for one hour, followed by incubation in H2O2-free DTM for three hours. These samples were used as a positive control for cell death.
# The sections from each mouse were placed in 400 μl PBS in one well of a 48-well plate (i.e. three wells for three mice) and then treated with 200 μl of MTT (5 mg/ml) per well with gentle mixing at 37° C. for about 2 hours. Subsequently, 800 μl of the lysis buffer was added to each well, and the plate was sealed and incubated overnight at 37° C. with gentle mixing. Three 100-μl portions of the tissue solution obtained were next transferred to three respective wells of a 96-well plate (i.e. three wells per mouse and nine wells for three mice in one group) and absorbance at 570 nm was measured using a 96-well multi scanner auto-reader. Results obtained were normalized to protein levels and then expressed as percent of carrier-treated samples.
# B16F10 cells = assay: Intracranial injection of curcumin on brain tumor cells (B16F10); assay type: in vivo, mice; conditions: 5 μl of 3 mM curcumin via cannula every other day
# From the text: Each mouse was fitted with a stainless steel guide cannula (Plastic Ones, System C313G, Roanoke, Va., USA) to administer curcumin directly to the brain. Cannulas were implanted into the right frontal cortex at the same coordinates as used earlier for intracerebral injection. The guide cannula was fixed to the skull with dental cement. A removable stylet plugged the guide cannula except during the time of drug injection. B16F10 cells (103) were delivered into mice in two sets on the first day. Starting from the third day, 5 μl of curcumin (3 mM) in PBS containing 15% DMSO were infused through the cannula of one set of mice (three), whereas the other set of mice (three) received 5 μl of PBS containing 15% DMSO (carrier). Considering that the brain volume of an adult mouse is about 400 μl, dispersion of this solution would give a final concentration of 37.5 μM curcumin and 0.187% DMSO in the brain. This infusion was started on the third day and then performed every other day, until day 19. The brains of the treated mice were removed and soaked (fixed) in 4% paraformaldehyde.
# ovarian cancer = conditions: orthotopic murine model of ovarian cancer (Lin et al. 2007); cited from earlier work
structure (smiles),measurement,setting,value
COc1cc(/C=C/C(=O)CC(=O)/C=C/c2ccc(O)c(OC)c2)ccc1O [curcumin],cell viability (MTT),[1],dramatic decrease
same,cell viability (MTT),[2],dramatic decrease
same,phospho-NF-κB (Western blot),phospho-NF-κB,suppression
same,phospho-Akt (Western blot),phospho-Akt,suppression
same,Erk (Western blot),Erk,suppression
same,cell viability in the brain (MTT activity),[3],did not cause suppression of cell viability
same,mice with a detectable brain tumor,B16F10 cells; day 3 to day 19 (FIG. 11),None
same,behavior,"B16F10 cells; day 3 to day 19, carrier mice collapsed day 15-25",normal behavior
same,tumor growth,ovarian cancer,reduces tumor growth
